# Results taken from article PMC2810227, “3-O-Methylfunicone, a Selective Inhibitor of Mammalian Y-Family DNA Polymerases from an Australian Sea Salt Fungal Strain” (Marine Drugs, 2009).
# What was measured:
# Conditions in all cases: 100 μM
# [1] = target: T1, rat pol β (Rattus norvegicus, UniProt P06766); test: DNA polymerase assay, pol β; type: biochemical
# T1 construct: made in house; host or cells: E. coli JMpβ5
# Source text: (§1) Pol α was purified from calf thymus by immuno-affinity column chromatography, as described by Tamai et al.. Recombinant rat pol β was purified from E. coli JMpβ5, as described by Date et al.. The human pol γ catalytic gene was cloned into pFastBac. Histidine-tagged enzyme was expressed using the BAC-TO-BAC HT Baculovirus Expression System according to the supplier’s manual (Life Technologies, MD, USA) and purified using ProBoundresin (Invitrogen Japan, Tokyo, Japan). Human pols δ and ɛ were purified by nuclear fractionation of human peripheral blood cancer cells (Molt-4) using the second subunit of pols δ and ɛ-conjugated affinity column chromatography, respectively. A truncated form of human pol η (residues 1–511) tagged with His6 at its C-terminal was expressed in E. coli cells and purified as described by Kusumoto et al.. A recombinant mouse pol ι tagged with His6 at its C-terminal was expressed and purified by Ni-NTA column chromatography as described elsewhere (Masutani et al., in preparation). […]
# (§2) The compounds were dissolved in distilled dimethyl sulfoxide (DMSO) at various concentrations and sonicated for 30 sec. […] Activity without the inhibitor was considered 100%, and the remaining activity at each concentration of the inhibitor was determined relative to this value. […]
# [2] = target: human telomerase (Homo sapiens, UniProt O14746); test: Telomerase assay; type: biochemical
# Protocol: (§3) The activities of calf primase of pol α, human telomerase, T7 RNA polymerase, mouse IMP dehydrogenase, human DNA topoisomerases I and II, T4 polynucleotide kinase and bovine DNase I were measured in standard assays according to the manufacturer’s specifications, as described by Tamiya-Koizumi et al., Oda et al., Nakayama et al., Mizushina et al., Ishimaru et al., Soltis et al. and Lu et al., respectively.
# [3] = system: cauliflower pol α; test: DNA polymerase assay, plant pol α; type: biochemical
# Source text: as §1, §2
# [4] = target: T2, human pol δ (Homo sapiens, UniProt P28340); test: DNA polymerase assay, pol δ; type: biochemical
# T2 construct: purified by nuclear fractionation of human peripheral blood cancer cells (Molt-4); endogenous in cells; host or cells: Molt-4
# Source text: as §1, §2
# [5] = target: T3, bovine DNase I (Bos taurus, UniProt P00639); test: DNase I assay; type: biochemical
# T3 construct: Calf thymus TdT and bovine pancreas DNase I were obtained from Stratagene Cloning Systems; purchased Stratagene Cloning Systems (La Jolla, CA, USA); host or cells: bovine pancreas (tissue)
# Source text: as §1, with “al..” for “al.. A recombinant mouse pol ι tagged with His6 at its C-terminal was expressed and purified by Ni-NTA column chromatography as described elsewhere (Masutani et al., in preparation).”
# as §3
# [6] = target: T4, rice pol λ (Oryza sativa subsp. japonica, UniProt Q67VC8); test: DNA polymerase assay, plant pol λ; type: biochemical, rice (Oryza sativa L. cv. Nipponbare)
# T4 construct: His; made in house
# Source text: as §1, §2
# [7] = target: T5, calf thymus TdT (Bos taurus, UniProt P06526); test: DNA polymerase assay, TdT; type: biochemical
# T5 construct: purchased Stratagene Cloning Systems (La Jolla, CA, USA)
# Source text: as §1, §2
# [8] = target: T6, human topoisomerase II (Homo sapiens, UniProt P11388); test: DNA topoisomerase II assay; type: biochemical
# T6 construct: Purified human placenta DNA topoisomerases I and II were purchased from TopoGen, Inc; purchased TopoGen, Inc. (Columbus, OH, USA); host or cells: human placenta (tissue-purified)
# Source text: as §1, with “al..” for “al.. A recombinant mouse pol ι tagged with His6 at its C-terminal was expressed and purified by Ni-NTA column chromatography as described elsewhere (Masutani et al., in preparation).”
# as §3
# [9] = target: T7, T7 RNA polymerase (Escherichia phage T7, UniProt P00573); test: T7 RNA polymerase assay; type: biochemical
# T7 construct: purchased Takara Bio (Tokyo, Japan)
# Source text: as §1, with “al..” for “al.. A recombinant mouse pol ι tagged with His6 at its C-terminal was expressed and purified by Ni-NTA column chromatography as described elsewhere (Masutani et al., in preparation).”
# as §3
# T2 sequence (P28340 whole entry): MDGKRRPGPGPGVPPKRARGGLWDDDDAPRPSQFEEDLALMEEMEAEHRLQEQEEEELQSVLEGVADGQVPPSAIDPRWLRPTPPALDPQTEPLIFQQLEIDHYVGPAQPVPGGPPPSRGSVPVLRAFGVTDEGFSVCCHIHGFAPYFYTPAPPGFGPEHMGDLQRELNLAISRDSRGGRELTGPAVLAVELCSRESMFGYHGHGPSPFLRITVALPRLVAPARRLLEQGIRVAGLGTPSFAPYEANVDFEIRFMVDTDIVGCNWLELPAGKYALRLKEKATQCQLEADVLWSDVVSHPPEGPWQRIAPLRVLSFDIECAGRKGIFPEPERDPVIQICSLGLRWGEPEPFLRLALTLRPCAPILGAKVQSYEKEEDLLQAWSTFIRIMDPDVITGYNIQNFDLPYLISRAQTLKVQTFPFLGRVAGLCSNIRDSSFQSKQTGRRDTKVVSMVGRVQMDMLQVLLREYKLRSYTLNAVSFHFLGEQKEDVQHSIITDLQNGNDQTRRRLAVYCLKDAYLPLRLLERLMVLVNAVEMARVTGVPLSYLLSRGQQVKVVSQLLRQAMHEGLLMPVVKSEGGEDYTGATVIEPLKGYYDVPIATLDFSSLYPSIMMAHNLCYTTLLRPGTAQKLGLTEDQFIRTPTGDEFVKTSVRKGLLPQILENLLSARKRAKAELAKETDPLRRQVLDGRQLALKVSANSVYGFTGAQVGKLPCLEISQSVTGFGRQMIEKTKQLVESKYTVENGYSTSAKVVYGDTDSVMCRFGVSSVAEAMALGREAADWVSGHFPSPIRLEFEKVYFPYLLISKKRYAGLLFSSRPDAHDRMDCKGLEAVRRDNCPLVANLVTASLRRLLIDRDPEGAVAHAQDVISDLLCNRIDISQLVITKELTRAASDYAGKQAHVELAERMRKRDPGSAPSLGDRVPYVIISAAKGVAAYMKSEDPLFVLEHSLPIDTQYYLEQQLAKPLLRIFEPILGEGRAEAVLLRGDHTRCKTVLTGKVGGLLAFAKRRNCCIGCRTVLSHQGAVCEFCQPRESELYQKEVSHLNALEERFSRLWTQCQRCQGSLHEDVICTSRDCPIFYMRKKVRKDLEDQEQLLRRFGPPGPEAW
# T3 sequence (P00639 23-282): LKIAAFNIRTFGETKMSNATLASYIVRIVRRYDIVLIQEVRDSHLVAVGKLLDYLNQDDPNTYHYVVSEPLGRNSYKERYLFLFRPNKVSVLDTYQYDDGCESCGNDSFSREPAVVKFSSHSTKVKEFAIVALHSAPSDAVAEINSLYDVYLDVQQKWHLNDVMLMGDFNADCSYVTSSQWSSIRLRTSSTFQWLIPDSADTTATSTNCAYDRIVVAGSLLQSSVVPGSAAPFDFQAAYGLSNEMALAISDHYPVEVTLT
# T4 sequence (Q67VC8 whole entry): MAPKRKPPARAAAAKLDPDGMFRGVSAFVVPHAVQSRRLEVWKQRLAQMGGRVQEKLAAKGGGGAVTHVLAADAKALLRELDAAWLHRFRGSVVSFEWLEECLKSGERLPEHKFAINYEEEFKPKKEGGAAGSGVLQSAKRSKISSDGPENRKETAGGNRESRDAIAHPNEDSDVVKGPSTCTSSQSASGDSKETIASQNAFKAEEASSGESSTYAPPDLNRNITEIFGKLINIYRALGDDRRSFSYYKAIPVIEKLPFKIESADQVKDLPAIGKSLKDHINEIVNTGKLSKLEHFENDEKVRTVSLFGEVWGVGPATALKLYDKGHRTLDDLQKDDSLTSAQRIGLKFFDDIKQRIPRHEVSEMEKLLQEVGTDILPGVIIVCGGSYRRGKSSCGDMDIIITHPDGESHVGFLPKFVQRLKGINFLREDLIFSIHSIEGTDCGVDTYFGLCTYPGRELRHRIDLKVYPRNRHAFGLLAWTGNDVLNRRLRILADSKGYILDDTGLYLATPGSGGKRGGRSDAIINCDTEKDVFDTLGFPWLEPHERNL
# T7 sequence (P00573 whole entry): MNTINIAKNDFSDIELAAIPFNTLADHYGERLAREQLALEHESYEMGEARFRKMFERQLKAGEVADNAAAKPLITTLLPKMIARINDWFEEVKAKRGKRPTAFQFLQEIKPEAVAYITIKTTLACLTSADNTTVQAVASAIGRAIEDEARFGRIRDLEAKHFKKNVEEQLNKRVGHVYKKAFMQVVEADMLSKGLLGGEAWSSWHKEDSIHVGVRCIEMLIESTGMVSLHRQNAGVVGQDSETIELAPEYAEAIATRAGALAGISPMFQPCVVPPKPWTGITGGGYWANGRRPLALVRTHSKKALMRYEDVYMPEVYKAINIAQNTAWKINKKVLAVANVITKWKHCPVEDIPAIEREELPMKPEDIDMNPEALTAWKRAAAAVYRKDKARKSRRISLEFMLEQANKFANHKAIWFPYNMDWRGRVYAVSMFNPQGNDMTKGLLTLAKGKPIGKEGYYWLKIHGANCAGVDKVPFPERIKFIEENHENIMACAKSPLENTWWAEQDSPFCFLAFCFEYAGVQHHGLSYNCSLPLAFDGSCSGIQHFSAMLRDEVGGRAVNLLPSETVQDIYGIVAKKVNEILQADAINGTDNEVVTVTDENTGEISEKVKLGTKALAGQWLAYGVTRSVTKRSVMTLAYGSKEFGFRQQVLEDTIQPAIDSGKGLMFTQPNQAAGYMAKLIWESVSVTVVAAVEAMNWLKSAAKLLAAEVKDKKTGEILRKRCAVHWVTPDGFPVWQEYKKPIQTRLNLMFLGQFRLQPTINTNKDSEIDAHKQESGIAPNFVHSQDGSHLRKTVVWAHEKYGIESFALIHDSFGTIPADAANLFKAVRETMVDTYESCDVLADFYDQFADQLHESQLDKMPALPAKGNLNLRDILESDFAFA
# T5 sequence (P06526 whole entry): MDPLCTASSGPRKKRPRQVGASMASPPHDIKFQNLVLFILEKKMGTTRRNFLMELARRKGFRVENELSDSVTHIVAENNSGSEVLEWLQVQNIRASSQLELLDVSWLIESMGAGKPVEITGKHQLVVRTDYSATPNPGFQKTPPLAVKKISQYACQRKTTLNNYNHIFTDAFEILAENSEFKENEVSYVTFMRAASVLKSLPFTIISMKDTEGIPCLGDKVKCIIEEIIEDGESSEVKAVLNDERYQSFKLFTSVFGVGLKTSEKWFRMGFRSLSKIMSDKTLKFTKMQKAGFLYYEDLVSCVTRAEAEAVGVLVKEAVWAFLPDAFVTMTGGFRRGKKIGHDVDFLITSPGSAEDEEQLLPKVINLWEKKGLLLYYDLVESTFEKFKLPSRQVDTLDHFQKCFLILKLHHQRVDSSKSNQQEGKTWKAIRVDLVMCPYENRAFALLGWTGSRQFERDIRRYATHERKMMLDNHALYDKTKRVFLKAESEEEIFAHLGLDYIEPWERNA
# Sequence of human telomerase (O14746 whole entry): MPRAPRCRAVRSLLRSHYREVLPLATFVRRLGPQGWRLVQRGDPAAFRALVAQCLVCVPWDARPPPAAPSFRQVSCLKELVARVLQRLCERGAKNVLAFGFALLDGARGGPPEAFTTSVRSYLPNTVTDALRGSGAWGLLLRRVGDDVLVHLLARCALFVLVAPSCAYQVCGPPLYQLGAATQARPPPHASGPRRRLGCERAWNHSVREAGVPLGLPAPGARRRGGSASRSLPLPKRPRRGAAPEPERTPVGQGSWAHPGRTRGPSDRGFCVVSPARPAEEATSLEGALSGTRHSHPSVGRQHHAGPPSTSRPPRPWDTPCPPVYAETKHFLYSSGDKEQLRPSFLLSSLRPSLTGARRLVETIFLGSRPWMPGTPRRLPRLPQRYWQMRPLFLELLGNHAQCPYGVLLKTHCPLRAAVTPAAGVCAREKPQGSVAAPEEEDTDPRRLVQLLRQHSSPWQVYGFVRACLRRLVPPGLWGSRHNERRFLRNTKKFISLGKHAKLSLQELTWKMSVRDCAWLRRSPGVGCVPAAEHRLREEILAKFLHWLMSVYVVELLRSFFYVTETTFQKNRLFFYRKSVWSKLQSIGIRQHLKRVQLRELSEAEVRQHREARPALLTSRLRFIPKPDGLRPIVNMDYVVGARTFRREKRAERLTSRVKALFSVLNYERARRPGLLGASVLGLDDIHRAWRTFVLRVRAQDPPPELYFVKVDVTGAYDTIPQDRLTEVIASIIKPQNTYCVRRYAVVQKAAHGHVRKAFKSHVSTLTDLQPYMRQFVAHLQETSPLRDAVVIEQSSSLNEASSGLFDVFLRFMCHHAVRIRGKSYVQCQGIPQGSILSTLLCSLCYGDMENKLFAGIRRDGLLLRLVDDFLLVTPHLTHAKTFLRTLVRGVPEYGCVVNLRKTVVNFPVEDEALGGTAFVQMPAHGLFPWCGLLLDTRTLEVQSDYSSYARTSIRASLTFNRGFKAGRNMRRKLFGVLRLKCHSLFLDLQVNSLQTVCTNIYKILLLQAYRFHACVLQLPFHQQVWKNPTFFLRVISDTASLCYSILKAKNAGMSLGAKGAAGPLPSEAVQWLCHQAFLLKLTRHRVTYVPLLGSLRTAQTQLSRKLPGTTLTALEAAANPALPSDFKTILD
smiles,measurement,setting,value
"C/C=C/c1occ(C(=O)c2c(OC)cc(OC)cc2C(=O)OC)c(=O)c1OC [compound 1, 3-O-methylfunicone]",effect on pol β activity,[1],hardly influenced
same,effect on human telomerase activity,[2],did not influence
same,effect on cauliflower pol α activity,[3],no effect
same,effect on pol δ activity,[4],hardly influenced
same,effect on bovine DNase I activity,[5],did not influence
same,effect on rice pol λ activity,[6],no effect
same,effect on TdT activity,[7],hardly influenced
same,effect on human topoisomerase II activity,[8],did not influence
same,effect on T7 RNA polymerase activity,[9],did not influence
